According to the supplement of paper PMC10307832:

Assays:
Experiment in all cases: relative viability (nuclei count vs DMSO), 5 days (fraction); higher = more cells survive
Bosutinib + Bortezomib = compound: COc1cc(Nc2c(C#N)cnc3cc(OCCCN4CCN(C)CC4)c(OC)cc23)c(Cl)cc1Cl [Bosutinib] + CC(C)C[C@H](NC(=O)[C@H](Cc1ccccc1)NC(=O)c1cnccn1)B(O)O [Bortezomib] (partner 0.002 µM)
Outline: (§1)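 Each reported value is a median over duplicate plates. It expresses relative viability: treated-well nuclei count divided by vehicle-well nuclei count. Lung cancer cell lines in 1536-well plates were dosed by pin tool a day after seeding, alone with one drug or with a fixed anchor-drug dose plus five library-drug doses (not always all listed) in √10 steps, and nuclei were counted after 5 days.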

Bosutinib + Luminespib = compound: COc1cc(Nc2c(C#N)cnc3cc(OCCCN4CCN(C)CC4)c(OC)cc23)c(Cl)cc1Cl [Bosutinib] + CCNC(=O)c1noc(-c2cc(C(C)C)c(O)cc2O)c1-c1ccc(CN2CCOCC2)cc1 [Luminespib] (partner 0.01 µM)
Outline: as §1

Bosutinib + Foretinib = compound: COc1cc(Nc2c(C#N)cnc3cc(OCCCN4CCN(C)CC4)c(OC)cc23)c(Cl)cc1Cl [Bosutinib] + COc1cc2c(Oc3ccc(NC(=O)C4(C(=O)Nc5ccc(F)cc5)CC4)cc3F)ccnc2cc1OCCCN1CCOCC1 [Foretinib] (partner 0.25 µM)
Outline: as §1

Bosutinib + Tozasertib = compound: COc1cc(Nc2c(C#N)cnc3cc(OCCCN4CCN(C)CC4)c(OC)cc23)c(Cl)cc1Cl [Bosutinib] + Cc1cc(Nc2cc(N3CCN(C)CC3)nc(Sc3ccc(NC(=O)C4CC4)cc3)n2)n[nH]1 [Tozasertib] (partner 0.1 µM)
Outline: as §1

Bosutinib + Vorinostat = compound: COc1cc(Nc2c(C#N)cnc3cc(OCCCN4CCN(C)CC4)c(OC)cc23)c(Cl)cc1Cl [Bosutinib] + O=C(CCCCCCC(=O)Nc1ccccc1)NO [Vorinostat] (partner 1 µM)
Outline: as §1

Cell Line | relative viability (Bosutinib + Bortezomib; first compound 0.01 µM) | relative viability (Bosutinib + Bortezomib; first compound 0.03162 µM) | relative viability (Bosutinib + Bortezomib; first compound 0.1 µM) | relative viability (Bosutinib + Bortezomib; first compound 1 µM) | relative viability (Bosutinib + Luminespib; first compound 0.01 µM) | relative viability (Bosutinib + Luminespib; first compound 0.03162 µM) | relative viability (Bosutinib + Luminespib; first compound 0.1 µM) | relative viability (Bosutinib + Luminespib; first compound 1 µM) | relative viability (Bosutinib + Foretinib; first compound 0.01 µM) | relative viability (Bosutinib + Foretinib; first compound 0.03162 µM) | relative viability (Bosutinib + Foretinib; first compound 0.1 µM) | relative viability (Bosutinib + Foretinib; first compound 1 µM) | relative viability (Bosutinib + Tozasertib; first compound 0.01 µM) | relative viability (Bosutinib + Tozasertib; first compound 0.03162 µM) | relative viability (Bosutinib + Tozasertib; first compound 0.1 µM) | relative viability (Bosutinib + Tozasertib; first compound 1 µM) | relative viability (Bosutinib + Vorinostat; first compound 0.01 µM) | relative viability (Bosutinib + Vorinostat; first compound 0.03162 µM) | relative viability (Bosutinib + Vorinostat; first compound 0.1 µM) | relative viability (Bosutinib + Vorinostat; first compound 1 µM)
HARA | 1.15 | 1.13 | 1.1 | 1.18 | 0.885 | 0.549 | 0.682 | 0.741 | 0.869 | 0.872 | 0.878 | 0.646 | 0.119 | 0.149 | 0.104 | 0.125 | 0.544 | 0.654 | 0.754 | 0.592
HCC-15 | 1.05 | 1.06 | 1.08 | 0.915 | 0.39 | 0.346 | 0.315 | 0.18 | 1.07 | 1.05 | 1.04 | 0.874 | 0.474 | 0.418 | 0.361 | 0.328 | 0.759 | 0.893 | 0.893 | 0.772
HCC-44 | 0.873 | 0.891 | 0.867 | 0.567 | 1.18 | 1.07 | 1.08 | 0.627 | – | – | – | – | 1.07 | 1.18 | 1.09 | 0.685 | 1.08 | 1.11 | 1.06 | 1.16
HCC-78 | 0.551 | 0.486 | 0.428 | 0.429 | – | – | – | – | 0.553 | 0.506 | 0.571 | 0.52 | 0.406 | 0.327 | 0.439 | 0.384 | 0.469 | 0.362 | 0.444 | 0.356
